What was measured:
[1] = Pharmacokinetic evaluation in CD-1 mice; type: in vivo; details: oral administration 10.0 mg/kg
Procedure: Experimental Example 3: Pharmacokinetic Evaluation of the Compound of the Present Disclosure in […]
Experimental purpose: To test the pharmacokinetics of the compound in CD-1 mice in vivo
Experimental materials: CD-1 mice (male, 20 to 40 g, 4 to 6 weeks old, Beijing Vital River)
The pharmacokinetic characteristics of the compound in rodents after intravenous injection and oral administration were tested according to the standard protocol. In the experiment, the candidate compound was formulated into clear solutions, and a single intravenous injection and oral administration were respectively given to two mice. The vehicle of intravenous injection and oral administration was 1:1:8 DMSO/Solutol/water. The whole blood samples within 24 hours were collected in commercial EDTA2K anticoagulant tubes. The tubes were centrifuged at 6000 g for 3 minutes. The supernatant was separated to obtain plasma samples. 20 times the volume of acetonitrile solution containing internal standard was added to precipitate protein. The mixture was centrifuged. The supernatant was take out. An equal volume of water was added. Then the mixture was centrifuged to take the supernatant as the sample for sampling. Plasma concentration was quantitatively analyzed by LC-MS/MS analysis method, and pharmacokinetic parameters were calculated, such as apparent volume of distribution, clearance rate, half-life, area under the drug-time curve.

[2] = Rat tissue (bone marrow) distribution; type: in vivo; details: SD rats
Procedure: Experimental Example 6: Evaluation of Rat Tissue (Bone Marrow) Distribution of the Compound of the Present Disclosure
Experimental purpose: To test the distribution of the compound in the bone marrow and plasma of SD rats
Experimental materials: SD rats (male, 200 to 300 g, 6 to 10 weeks old, Beijing Vital River)
The content of the compound in the bone marrow and plasma of rats after oral administration was tested according to the standard protocol. In the experiment, the candidate compound was formulated into a clear solution. The vehicle was 5:95 DMSO and 10% hydroxypropyl β-cyclodextrin aqueous solution. A dose of 5 mg/kg was given to rats as a single oral administration. The whole blood samples and bone marrow samples were collected at 0.25, 0.5, 1, 2, 4, 6, and 24 hours, respectively. The whole blood samples were collected in commercial EDTA2K anticoagulant tubes. The tubes were centrifuged at 6000 g for 3 minutes. The supernatant was separated to obtain plasma samples. The acetonitrile solution containing internal standard was added to precipitate protein. The mixture was centrifuged. The supernatant was take out. An equal volume of water was added. After mixing well, plasma concentration was quantitatively analyzed by LC-MS/MS analysis method, and the area under the drug-time curve was calculated. The left femur of the rat was taken, and the muscle was removed. One end was cut off, placed in a centrifuge tube with the open end downwards. The tubes were centrifuged at 8000 rpm for 1 minute. The precipitate was bone marrow. The bone marrow was mixed with 50% methanol-water, grinded into a homogenate. The homogenate was added with an acetonitrile solution containing an internal standard to precipitate protein. The mixture was centrifuged to take the supernatant, added with an equal volume of water. After mixing well, the drug concentration in bone marrow was quantitatively analyzed by LC-MS/MS analysis method, and the area under the drug-time curve was calculated.
The calculation formula of bone marrow/plasma distribution coefficient is: Bone marrow/Plasma Ratio=bone marrow AUC0-last/plasma AUC0-last.

DPP1 of U937 cells = DPP1 of U937 cells (Homo sapiens (Human), UniProt P53634); test: Activity test of inhibiting DPP1 in U937 cells; type: cell-based; details: Gly-Phe-AFC probe, read-out: IC50, inhibitory activity on DPP1 of U937 cells
Sequence of DPP1 of U937 cells (P53634 25-134): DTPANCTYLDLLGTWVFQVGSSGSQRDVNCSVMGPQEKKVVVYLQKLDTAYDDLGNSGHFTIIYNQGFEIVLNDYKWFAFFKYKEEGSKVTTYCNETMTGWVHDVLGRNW
Sequence of DPP1 of U937 cells (P53634 231-394): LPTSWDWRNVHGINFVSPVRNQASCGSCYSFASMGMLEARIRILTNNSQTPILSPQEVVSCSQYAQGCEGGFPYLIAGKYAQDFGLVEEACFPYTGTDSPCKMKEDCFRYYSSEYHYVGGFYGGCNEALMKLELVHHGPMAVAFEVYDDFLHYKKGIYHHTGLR
Sequence of DPP1 of U937 cells (P53634 395-463): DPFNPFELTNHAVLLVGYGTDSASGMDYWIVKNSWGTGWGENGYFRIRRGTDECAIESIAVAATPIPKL
Procedure: Experimental Example 2: Activity Test of Inhibiting DPP1 in U937 Cells
Experimental Materials: • 1) Experimental reagents and consumables
The cell plate was placed in a carbon dioxide incubator for 1 day; • (3) after incubation for 1 hour, 100 μM Gly-Phe-AFC probe solution was added thereto, that is, 60 mM Gly-Phe-AFC probe stock solution was diluted with culture medium to 500 μM working solution; the working solution in 10 μL per well was transferred into the cell plate, and the cell plate was incubated in a carbon dioxide incubator for 1 hour;
3) the plate was read, and the data were analyzed: • (1) plate reading: after the cell incubation was completed, the cell plate was taken out, and the plate was read on Victor Nivo.
Using the equation (Sample−Min)/(Max−Min)×100% to convert the raw data into inhibition rate, the IC50 value might be obtained by curve fitting with four parameters (obtained by “log (inhibitor) vs. response—Variable slope” mode in GraphPad Prism).

[3] = plasma, intravenous injection 2.0 mg/kg
[4] = bone marrow, 5 mg/kg single oral administration

Bioavailability F ([1]; intravenous injection 2.0 mg/kg): 79.6%
Clearance rate CL [1, 3]: 18.7 mL/min/kg
Volume of distribution at steady state Vdss [1, 3]: 8.3 L/kg
Cmax ([1]; plasma, intravenous injection 2.0 mg/kg, read-out: Peak concentration Cmax): 2310 nM
Area under drug-time curve AUC0-∞ PO ([1]; plasma): 17.008 µM·h
Half life T1/2 (PO) ([1]; plasma): 4.6 h
Bone marrow/plasma distribution coefficient ([2]; 5 mg/kg oral, bone marrow AUC0-last/plasma AUC0-last): 7.0
Bone marrow Area under drug-time curve AUC0-last PO [2, 4]: 68856 nmol·h/kg
Bone marrow Peak concentration Cmax [2, 4]: 5014 nmol/kg
Plasma Area under drug-time curve AUC0-last PO ([2]; plasma, 5 mg/kg single oral administration): 9.902 µM·h
Cmax ([2]; plasma, 5 mg/kg single oral administration, read-out: Plasma Peak concentration Cmax): 1020 nM
IC50 (DPP1 of U937 cells): 2.4 nM
SMILES: Cn1ncc2ccc(-c3ccc(C[C@@H](C#N)NC(=O)[C@@H]4CNCCCO4)c(F)c3)cc21 [Compound 8]

Source: patent publication US20240150335A1, “FUSED RING DERIVATIVES CONTAINING 1,4-OXAZEPANE” (MEDSHINE DISCOVERY INC., priority 2021, published 2024)
